# Laboratory results reported in PubChem BioAssay (NCI).
#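 96-well plates; 48 h exposure; 5 concentrations. Endpoints by linear interpolation between flanking doses. Not reached: highest tested concentration assigned. TGI denotes the concentration required for complete inhibition of growth.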
# Assays:
# Test in all cases: NCI tumour cell line growth inhibition, 48 h
# [1] = test system: SK-MEL-28 melanoma
# [2] = test system: RPMI-8226 leukemia
# [3] = test system: NCI-H522 lung
# [4] = test system: SN12C renal
# [5] = test system: SK-MEL-5 melanoma
# [6] = test system: NCI-H23 lung
# [7] = test system: A549 NSCLC
# [8] = test system: SF-295 CNS
# [9] = test system: SF-268 CNS
# [10] = test system: PC-3 prostate
# [11] = test system: KM12 colon
# [12] = test system: OVCAR-4 ovarian
# [13] = test system: BT-549 breast
# [14] = test system: A498 renal
# [15] = test system: MDA-MB-435
# [16] = test system: NCI-H460 lung
# [17] = test system: DU-145 prostate
# [18] = test system: HS 578T breast
# [19] = test system: MALME-3M melanoma
# [20] = test system: CCRF-CEM leukemia
# [21] = test system: 786-0 renal
# [22] = test system: TK-10 renal
# [23] = test system: T-47D breast
# [24] = test system: NCI-H226 lung
# [25] = test system: SR leukemia
# [26] = test system: SW-620 colon
# [27] = test system: RXF 393 renal
# [28] = test system: U251 CNS
# [29] = test system: HCT-15 colon
# [30] = test system: HOP-92 NSCLC
# [31] = test system: SK-OV-3 ovarian
# [32] = test system: MDA-N
# [33] = test system: OVCAR-8 ovarian
# [34] = test system: SF-539 CNS
# [35] = test system: CAKI-1 renal
# [36] = test system: EKVX NSCLC
# [37] = test system: ACHN renal
# [38] = test system: LOX IMVI melanoma
# [39] = test system: HCT-116 colon
# [40] = test system: IGROV1 ovarian
# [41] = test system: M14 melanoma
# [42] = test system: MCF7 breast
# [43] = test system: SK-MEL-2 melanoma
# [44] = test system: OVCAR-3 ovarian
# [45] = test system: K-562 leukemia
# [46] = test system: OVCAR-5 ovarian
# [47] = test system: HCC-2998 colon
# [48] = test system: UACC-62 melanoma
# [49] = test system: HT29 colon
# [50] = test system: UACC-257 melanoma
# [51] = test system: HOP-62 NSCLC
# [52] = test system: HL-60(TB) leukemia
# [53] = test system: MDA-MB-231 breast
# [54] = test system: COLO 205 colon
# [55] = test system: MOLT-4 leukemia
# [56] = test system: SNB-75 CNS
# [57] = test system: SNB-19 CNS
# [58] = test system: NCI/ADR-RES ovarian
# [59] = test system: UO-31 renal
structure (smiles),measurement,setting,value
COc1ccc2cc(CNCCCCCCNC(=O)Nc3cccc4ccccc34)ccc2c1,TGI,[1],> 100 µM
same,TGI,[2],> 100 µM
same,TGI,[3],> 100 µM
same,TGI,[4],> 100 µM
same,TGI,[5],> 100 µM
same,TGI,[6],> 100 µM
same,TGI,[7],> 100 µM
same,TGI,[8],> 100 µM
same,TGI,[9],> 100 µM
same,TGI,[10],> 100 µM
same,TGI,[11],> 100 µM
same,TGI,[12],> 100 µM
same,TGI,[13],> 100 µM
same,TGI,[14],> 100 µM
same,TGI,[15],> 100 µM
same,TGI,[16],> 100 µM
same,TGI,[17],> 100 µM
same,TGI,[18],> 100 µM
same,TGI,[19],> 100 µM
same,TGI,[20],> 100 µM
same,TGI,[21],> 100 µM
same,TGI,[22],> 100 µM
same,TGI,[23],> 100 µM
same,TGI,[24],> 100 µM
same,TGI,[25],> 100 µM
same,TGI,[26],> 100 µM
same,TGI,[27],> 100 µM
same,TGI,[28],> 100 µM
same,TGI,[29],> 100 µM
same,TGI,[30],> 100 µM
same,TGI,[31],> 100 µM
same,TGI,[32],> 100 µM
same,TGI,[33],> 100 µM
same,TGI,[34],> 100 µM
same,TGI,[35],> 100 µM
same,TGI,[36],> 100 µM
same,TGI,[37],> 100 µM
same,TGI,[38],> 100 µM
same,TGI,[39],> 100 µM
same,TGI,[40],> 100 µM
same,TGI,[41],> 100 µM
same,TGI,[42],> 100 µM
same,TGI,[43],> 100 µM
same,TGI,[44],> 100 µM
same,TGI,[45],> 100 µM
same,TGI,[46],> 100 µM
same,TGI,[47],> 100 µM
same,TGI,[48],> 100 µM
same,TGI,[49],> 100 µM
same,TGI,[50],> 100 µM
same,TGI,[51],> 100 µM
same,TGI,[52],> 100 µM
same,TGI,[53],> 100 µM
same,TGI,[54],> 100 µM
same,TGI,[55],> 100 µM
same,TGI,[56],> 100 µM
same,TGI,[57],> 100 µM
O=C1c2cccc3cc([N+](=O)[O-])cc(c23)C(=O)N1c1ccc(OCCN2CCCC2)cc1,TGI,[58],> 100 µM
same,TGI,[1],45.9 µM
same,TGI,[3],31.7 µM
same,TGI,[4],> 100 µM
same,TGI,[5],30.1 µM
same,TGI,[6],39.7 µM
same,TGI,[7],20.6 µM
same,TGI,[8],41.1 µM
same,TGI,[9],> 100 µM
same,TGI,[10],> 100 µM
same,TGI,[11],> 100 µM
same,TGI,[12],67.2 µM
same,TGI,[14],32.2 µM
same,TGI,[15],45.1 µM
same,TGI,[16],21.3 µM
same,TGI,[17],> 100 µM
same,TGI,[18],> 100 µM
same,TGI,[19],30.9 µM
same,TGI,[20],73.5 µM
same,TGI,[21],33.4 µM
same,TGI,[22],81.3 µM
same,TGI,[23],> 100 µM
same,TGI,[24],24.2 µM
same,TGI,[59],27.1 µM
same,TGI,[25],73.2 µM
same,TGI,[26],95.2 µM
same,TGI,[27],37 µM
same,TGI,[28],41.3 µM
same,TGI,[29],44.5 µM
same,TGI,[30],> 100 µM
same,TGI,[32],80.3 µM
same,TGI,[33],> 100 µM
same,TGI,[34],29.5 µM
same,TGI,[35],> 100 µM
same,TGI,[36],71.3 µM
same,TGI,[37],28.1 µM
same,TGI,[38],34.6 µM
same,TGI,[39],46.7 µM
same,TGI,[40],41.9 µM
same,TGI,[41],47.1 µM
same,TGI,[42],38.3 µM
same,TGI,[43],54.3 µM
same,TGI,[46],51.7 µM
same,TGI,[47],33.5 µM
same,TGI,[49],28.3 µM
same,TGI,[50],36.1 µM
same,TGI,[51],76.4 µM
same,TGI,[52],29 µM
same,TGI,[53],> 100 µM
same,TGI,[54],38.3 µM
same,TGI,[55],56.7 µM
same,TGI,[56],67.1 µM
same,TGI,[57],80.2 µM
